{"source": "patent US20160157484A1", "about": "“NATURAL ANTIMICROBIAL COMPOSITIONS” (Lincoln Manufacturing Inc., priority 2011, published 2016)", "experiment": "Solubility and stability of 20% and 25% lauric acid in solvents and solvent mixtures"}
{"substance": "Glycereth 2-Cocoate", "values": [{"measurement": "Solubility of 20% Lauric Acid", "setting": "20% lauric acid in the named solvent", "result": "Not Soluble"}, {"measurement": "Solubility of 25% Lauric Acid", "setting": "25% lauric acid in the named solvent", "result": "Not Soluble"}]}
